Results taken from patent publication US8178506B2, “Oligomeric compounds and compositions for use in modulation of small non-coding RNAs” (Regulus Therapeutics Inc., priority 2003, dated 2012).
Values joined by “and” are separate entries in the source; they are usually repeats but may differ in a detail not shown here. Equal values may be shown once. In the oligonucleotide strings, read from the 5' end, every base follows the letter of its sugar. An asterisk marks phosphorothioate; unmarked linkages are phosphodiester. Other units and linkages are bracketed, terminal groups are in braces. A string of capitals states the bases alone. e = 2'-O-(2-methoxyethyl) (MOE); [5mC] = 5-methylcytosine; d = 2'-deoxy (DNA)

Key:
T47D cells = experiment: Caspase-3 activity assay (apoptosis) in T47D cells; conditions: for apoptosis in T47D cells: caspase assay, 200 nM, conclusion from Tables 9-12; for Fold Increase over UTC (caspase-3 activity, apoptosis): T47D cells, 200 nM oligomeric compound, 48 hours
HeLa cells = experiment: Cell cycle assay in HeLa cells; format: cell-based, human; conditions: for phase of the cell cycle in which cells arrest or delay: HeLa
[1] = HeLa cells, 25 nM, 48 hours, percentage of cells in phase, average of replicates
[2] = HeLa cells, 50 nM, 48 hours, percentage of cells in phase, average of replicates
[3] = HeLa cells, 100 nM, 48 hours, percentage of cells in phase, average of replicates
[4] = HeLa cells, 150 nM oligomeric compound, 24 hours, relative to untreated control (UTC = 100)
[5] = HeLa cells, 150 nM oligomeric compound, 48 hours after treatment, relative to untreated control (UTC=100)
[6] = HeLa cells, 150 nM, 48 hours, percentage of cells in phase, average of replicates

ISIS 328421: 5-10-5 2′-MOE gapmer PS; targets mir-30d pri-miRNA (eG*e[5mC]*eT*eT*eA*dG*d[5mC]*dT*dG*dT*dG*dT*d[5mC]*dT*dT*eA*e[5mC]*eA*eG*e[5mC])
apoptosis in T47D cells (T47D cells): induce apoptosis
phase of the cell cycle in which cells arrest or delay (HeLa cells; 150 nM, 24 hours): G2/M-phase
phase of the cell cycle in which cells arrest or delay (HeLa cells; 150 nM, 48 hours): S- and G2/M-phases

328383 (eA*eG*eA*eG*eG*dG*dG*dA*dG*dA*d[5mC]*dG*dA*dG*dA*eG*e[5mC]*eA*e[5mC]*eT) [compound 328383]
Fold Increase over UTC (caspase-3 activity, apoptosis) (T47D cells; experiment of Table 10): 1.2 fold
% cells in cell cycle phase: G2/M (HeLa cells; HeLa cells, 25 nM, 48 hours): 18%
% cells in cell cycle phase: G1 (HeLa cells; [1]): 57%
% cells in cell cycle phase: S (HeLa cells; [1]): 25%
% cells in cell cycle phase: aneuploid (HeLa cells; [1]): 12%
% cells in cell cycle phase: subG1 (HeLa cells; [1]): 1.9%
% cells in cell cycle phase: G2/M (HeLa cells; HeLa cells, 50 nM, 48 hours): 18%
% cells in cell cycle phase: G1 (HeLa cells; [2]): 56%
% cells in cell cycle phase: S (HeLa cells; [2]): 25%
% cells in cell cycle phase: aneuploid (HeLa cells; [2]): 13%
% cells in cell cycle phase: subG1 (HeLa cells; [2]): 1.3%
% cells in cell cycle phase: G2/M (HeLa cells; HeLa cells, 100 nM, 48 hours): 30%
% cells in cell cycle phase: G1 (HeLa cells; [3]): 36%
% cells in cell cycle phase: S (HeLa cells; [3]): 34%
% cells in cell cycle phase: aneuploid (HeLa cells; [3]): 10%
% cells in cell cycle phase: subG1 (HeLa cells; [3]): 9.3%
% cells aneuploid (HeLa cells; [4]): 92% and 98%
% cells in cell cycle phase G1 (HeLa cells; [4]): 55% and 63%
% cells in cell cycle phase G2/M (HeLa cells; [4]): 222% and 183%
% cells in cell cycle phase S (HeLa cells; [4]): 82% and 97%
% cells in cell cycle phase subG1 (HeLa cells; [4]): 314% and 289%
% cells in cell cycle phase: G1 (HeLa cells; [5]): 53% and 54%
% cells in cell cycle phase: G2/M (HeLa cells; [5]): 124% and 150%
% cells in cell cycle phase: S (HeLa cells; [5]): 217% and 178%
% cells in cell cycle phase: aneuploid (HeLa cells; [5]): 90%
% cells in cell cycle phase: G2/M (HeLa cells; HeLa cells, 150 nM, 48 hours): 34%
% cells in cell cycle phase: G1 (HeLa cells; [6]): 29%
% cells in cell cycle phase: S (HeLa cells; [6]): 36%
% cells in cell cycle phase: aneuploid (HeLa cells; [6]): 11%
% cells in cell cycle phase: subG1 (HeLa cells; [6]): 11.8%

SEQ ID NO 495: gapmer of Tables 9-12 having this SEQ ID NO (antisense eA*e[5mC]*e[5mC]*eT*eG*dT*dG*dT*dA*dA*d[5mC]*dA*dG*d[5mC]*d[5mC]*eG*eT*eG*eT*eA)
apoptosis in T47D cells (T47D cells): prevent or have a protective effect from apoptosis

328389 (eG*eG*e[5mC]*eA*e[5mC]*dT*dT*d[5mC]*dA*dT*dT*dG*d[5mC]*dT*dG*e[5mC]*eT*eG*e[5mC]*e[5mC]; antisense) [compound 328389]
Fold Increase over UTC (caspase-3 activity, apoptosis) (T47D cells; experiment of Table 12): 1.1 fold

ISIS 328371: 5-10-5 2′-MOE gapmer PS; targets mir-1d pri-miRNA (eT*e[5mC]*e[5mC]*eA*eT*dA*dG*d[5mC]*dT*dT*dA*dG*d[5mC]*dA*dG*eG*eT*e[5mC]*e[5mC]*eA)
apoptosis in T47D cells (T47D cells): induce apoptosis

328379 (e[5mC]*eT*eG*eA*e[5mC]*dT*dG*dA*dG*dA*d[5mC]*dT*dG*dT*dT*e[5mC]*eA*e[5mC]*eA*eG; antisense) [compound 328379]
Fold Increase over UTC (caspase-3 activity, apoptosis) (T47D cells; experiment of Table 12): 1.1 fold

328650 (eA*eA*eT*e[5mC]*e[5mC]*dA*dT*dT*dG*dA*dA*dG*dA*dG*dG*e[5mC]*eG*eA*eT*eT; antisense) [compound 328650]
Fold Increase over UTC (caspase-3 activity, apoptosis) (T47D cells; experiment of Table 12): 0.8 fold

GGATTTAAACGGTAAACATC (antisense; same sequence listed as MOE 5-10-5 gapmer and as uniform MOE, further chemistry not given here) [ISIS 328695]
apoptosis in T47D cells (T47D cells): prevent or have a protective effect from apoptosis

328693 (eT*eT*eT*eG*eA*dT*dT*dT*dT*dA*dA*dT*dT*d[5mC]*d[5mC]*eA*eA*eA*e[5mC]*eT; antisense) [compound 328693]
Fold Increase over UTC (caspase-3 activity, apoptosis) (T47D cells; experiment of Table 12): 1.0 fold

SEQ ID NO 516: gapmer of Tables 9-12 having this SEQ ID NO (antisense eA*eA*eT*eG*eG*dA*dG*d[5mC]*d[5mC]*dA*dA*dG*dG*dT*dG*e[5mC]*eT*eG*e[5mC]*e[5mC])
apoptosis in T47D cells (T47D cells): induce apoptosis

SEQ ID NO 521: gapmer of Tables 9-12 having this SEQ ID NO (antisense eT*eT*eT*eA*e[5mC]*dT*d[5mC]*dA*dT*dA*d[5mC]*d[5mC]*dT*d[5mC]*dG*e[5mC]*eA*eA*e[5mC]*e[5mC])
apoptosis in T47D cells (T47D cells): induce apoptosis

328395 (antisense e[5mC]*e[5mC]*e[5mC]*eA*eG*dT*dG*dG*dT*dG*dG*dG*dT*dG*dT*eG*eA*e[5mC]*e[5mC]*e[5mC]) [compound 328395]
Fold Increase over UTC (caspase-3 activity, apoptosis) (T47D cells; experiment of Table 10): 1.0 fold

AGAATGAGTTGACATACCAA (antisense; same sequence listed as MOE 5-10-5 gapmer and as uniform MOE, further chemistry not given here) [ISIS 328658]
apoptosis in T47D cells (T47D cells): induce apoptosis

ISIS 328397: 5-10-5 2′-MOE gapmer PS; targets mir-103-1 pri-miRNA (eT*eT*eG*eA*eT*d[5mC]*d[5mC]*dA*dT*dA*dT*dG*d[5mC]*dA*dA*e[5mC]*eA*eA*eG*eG)
apoptosis in T47D cells (T47D cells): induce apoptosis

SEQ ID NO 522: gapmer of Tables 9-12 having this SEQ ID NO (antisense eA*eA*eT*eT*eG*dT*dA*dT*dG*dA*d[5mC]*dA*dT*dT*dA*eA*eA*eT*e[5mC]*eA)
apoptosis in T47D cells (T47D cells): prevent or have a protective effect from apoptosis

TGCTCAGCCAGCCCCATTCT (antisense; same sequence listed as MOE 5-10-5 gapmer and as uniform MOE, further chemistry not given here) [ISIS 328645]
apoptosis in T47D cells (T47D cells): induce apoptosis

328412 (antisense eT*eT*eT*eA*e[5mC]*dT*d[5mC]*dA*dT*dA*d[5mC]*d[5mC]*dT*d[5mC]*dG*e[5mC]*eA*eA*e[5mC]*e[5mC]) [compound 328412]
Fold Increase over UTC (caspase-3 activity, apoptosis) (T47D cells; experiment of Table 12): 1.2 fold

328689 (eT*eA*e[5mC]*eA*eA*dT*dT*dT*dG*dG*dG*dA*dG*dT*d[5mC]*e[5mC]*eT*eG*eA*eA; antisense) [compound 328689]
Fold Increase over UTC (caspase-3 activity, apoptosis) (T47D cells; experiment of Table 11): 0.8 fold

328658 (eA*eG*eA*eA*eT*dG*dA*dG*dT*dT*dG*dA*d[5mC]*dA*dT*eA*e[5mC]*e[5mC]*eA*eA; antisense) [compound 328658]
Fold Increase over UTC (caspase-3 activity, apoptosis) (T47D cells; experiment of Table 12): 1.2 fold
